The source made the active and inactive calls.
What was measured:
[1] = tested on: H4; assay: Luminescence Cell-Based Dose Response HTS to Identify Activators of 5'UTR Stem-Loop Driven Prion Protein mRNA Translation in H4 Neuroglioblastoma Cells. [Related pubchem assays: 1829 (Project Summary), 1814 (Primary HTS)]; type: functional; settings: Homo sapiens
[2] = Luminescence Cell-Based Dose Response HTS to Identify Activators of Luciferase Translation or Activity in H4 […] Cells. [Related pubchem assays: 1829 (Project Summary), 1814 (Primary HTS)]; type: functional
[3] = Luminescence Cell-Based Dose Confirmation HTS to Identify Activators of 5'UTR Stem-Loop Driven Alpha-Synuclein mRNA Translation in H4 Neuroglioblastoma Cells. [Related pubchem assays: 1829 (Project Summary), 1814 (Primary HTS)]; type: functional
[4] = biological target: T1, Calpain-2 catalytic subunit (Sus scrofa, UniProt P43367); assay: m-calpain protease blockers, concentration series – biochemical, fluorogenic peptide substrate, dose response (AID 1420); type: functional
T1 sequence (P43367 whole entry): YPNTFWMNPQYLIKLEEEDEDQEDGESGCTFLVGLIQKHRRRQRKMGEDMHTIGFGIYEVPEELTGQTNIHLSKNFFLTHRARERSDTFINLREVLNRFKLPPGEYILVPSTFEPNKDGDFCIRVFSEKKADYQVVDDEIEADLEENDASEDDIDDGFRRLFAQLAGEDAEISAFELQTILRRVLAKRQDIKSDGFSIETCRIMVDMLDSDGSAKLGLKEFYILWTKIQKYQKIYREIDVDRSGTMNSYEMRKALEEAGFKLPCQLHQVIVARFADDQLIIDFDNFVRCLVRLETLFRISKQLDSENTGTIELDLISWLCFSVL

[5] = biological target: T2, Corticotropin-releasing factor receptor 2/Corticotropin-releasing factor-binding protein (Homo sapiens, UniProt P24387+Q13324); assay: activators of CRF receptor 2 with binding protein – uHTS hits, confirmation (AID 602473); type: functional; settings: read-out: EC50_Mean
T2 sequence (Q13324 whole entry): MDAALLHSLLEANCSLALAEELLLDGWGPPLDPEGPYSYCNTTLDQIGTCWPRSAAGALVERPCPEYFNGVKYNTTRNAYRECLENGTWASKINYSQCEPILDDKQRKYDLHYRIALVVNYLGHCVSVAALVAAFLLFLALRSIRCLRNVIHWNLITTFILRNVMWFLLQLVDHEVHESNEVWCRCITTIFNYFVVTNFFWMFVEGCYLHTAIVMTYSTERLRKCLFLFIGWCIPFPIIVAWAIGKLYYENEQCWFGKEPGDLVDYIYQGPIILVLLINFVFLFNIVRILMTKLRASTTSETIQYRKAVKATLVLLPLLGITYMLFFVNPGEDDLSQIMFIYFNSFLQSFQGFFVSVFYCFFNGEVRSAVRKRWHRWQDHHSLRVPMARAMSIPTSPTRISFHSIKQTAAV
T2 sequence (P24387 whole entry): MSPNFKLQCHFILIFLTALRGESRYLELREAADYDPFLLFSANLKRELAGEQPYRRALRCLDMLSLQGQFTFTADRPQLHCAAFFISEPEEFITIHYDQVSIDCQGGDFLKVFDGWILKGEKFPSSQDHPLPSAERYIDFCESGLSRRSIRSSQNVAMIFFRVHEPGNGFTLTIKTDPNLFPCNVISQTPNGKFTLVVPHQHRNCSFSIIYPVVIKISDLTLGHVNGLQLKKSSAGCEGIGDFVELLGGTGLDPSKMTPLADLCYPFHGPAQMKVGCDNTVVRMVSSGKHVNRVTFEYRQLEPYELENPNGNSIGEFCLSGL

[6] = biological target: T2, Corticotropin-releasing factor receptor 2/Corticotropin-releasing factor-binding protein; assay: Dose Response confirmation of uHTS hits for small molecule antagonists of the CRF-binding protein and CRF-R2 receptor complex.; type: functional; settings: read-out: IC50_Mean
[7] = biological target: T3, Polyadenylate-binding protein 1 (Homo sapiens, UniProt P11940); assay: MLLE binding blockers, Cy5 peptide tracer – biochemical, fluorescence polarization, Cy5-PAM2 peptide, secondary, miRNA deadenylation inhibitor project, dose response (AID 602260); type: functional; settings: read-out: IC50_Mean
[8] = biological target: T3, Polyadenylate-binding protein 1; assay: MLLE domain peptide-binding blockers, IC50 – biochemical, fluorescence polarization, FITC-PAM2 peptide, dose response (AID 602259); type: functional; settings: read-out: IC50_Mean
[9] = biological target: Cytochrome P450 2C9 (Homo sapiens, UniProt P11712)
[10] = biological target: Cytochrome P450 2C19 (Homo sapiens, UniProt P33261); assay: Cytochrome panel assay with activity outcomes. Panel member name: p450-cyp2c19 Compounds with AC50 equal or less than 10 uM are considered active; type: functional; settings: read-out: AC50
Chain of Cytochrome P450 2C19 (P33261 whole entry): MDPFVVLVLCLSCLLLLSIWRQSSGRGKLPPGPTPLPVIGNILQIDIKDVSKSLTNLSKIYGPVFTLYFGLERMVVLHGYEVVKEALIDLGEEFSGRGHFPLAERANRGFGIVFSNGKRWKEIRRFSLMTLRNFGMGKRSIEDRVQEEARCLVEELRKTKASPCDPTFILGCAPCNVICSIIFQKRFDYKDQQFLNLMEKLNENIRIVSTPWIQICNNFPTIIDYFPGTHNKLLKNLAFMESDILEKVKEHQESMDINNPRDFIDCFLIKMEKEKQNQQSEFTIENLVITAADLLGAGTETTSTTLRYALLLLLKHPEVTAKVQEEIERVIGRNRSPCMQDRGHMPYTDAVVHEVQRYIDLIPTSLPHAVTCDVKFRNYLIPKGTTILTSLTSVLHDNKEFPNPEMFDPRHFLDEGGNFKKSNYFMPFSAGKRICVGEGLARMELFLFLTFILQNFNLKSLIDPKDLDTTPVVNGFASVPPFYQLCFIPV

T3 sequence (P11940 whole entry, the tested form may be a part): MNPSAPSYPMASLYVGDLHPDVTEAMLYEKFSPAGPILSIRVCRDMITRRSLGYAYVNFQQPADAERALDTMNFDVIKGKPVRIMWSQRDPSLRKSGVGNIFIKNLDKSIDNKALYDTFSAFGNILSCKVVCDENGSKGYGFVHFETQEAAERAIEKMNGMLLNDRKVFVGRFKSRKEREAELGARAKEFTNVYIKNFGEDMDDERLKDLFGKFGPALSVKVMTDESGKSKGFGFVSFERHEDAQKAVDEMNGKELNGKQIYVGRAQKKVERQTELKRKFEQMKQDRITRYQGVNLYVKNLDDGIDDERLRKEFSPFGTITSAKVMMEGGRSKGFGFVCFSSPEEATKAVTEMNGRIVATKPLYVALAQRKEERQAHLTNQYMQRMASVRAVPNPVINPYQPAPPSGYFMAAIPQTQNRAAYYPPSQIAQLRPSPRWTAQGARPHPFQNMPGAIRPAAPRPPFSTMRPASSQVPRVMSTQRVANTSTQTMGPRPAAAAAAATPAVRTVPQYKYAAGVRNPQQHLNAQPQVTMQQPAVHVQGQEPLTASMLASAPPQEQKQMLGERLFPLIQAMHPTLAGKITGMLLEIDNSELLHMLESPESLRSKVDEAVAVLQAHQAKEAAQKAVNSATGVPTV
Chain of Cytochrome P450 2C9 (P11712 whole entry): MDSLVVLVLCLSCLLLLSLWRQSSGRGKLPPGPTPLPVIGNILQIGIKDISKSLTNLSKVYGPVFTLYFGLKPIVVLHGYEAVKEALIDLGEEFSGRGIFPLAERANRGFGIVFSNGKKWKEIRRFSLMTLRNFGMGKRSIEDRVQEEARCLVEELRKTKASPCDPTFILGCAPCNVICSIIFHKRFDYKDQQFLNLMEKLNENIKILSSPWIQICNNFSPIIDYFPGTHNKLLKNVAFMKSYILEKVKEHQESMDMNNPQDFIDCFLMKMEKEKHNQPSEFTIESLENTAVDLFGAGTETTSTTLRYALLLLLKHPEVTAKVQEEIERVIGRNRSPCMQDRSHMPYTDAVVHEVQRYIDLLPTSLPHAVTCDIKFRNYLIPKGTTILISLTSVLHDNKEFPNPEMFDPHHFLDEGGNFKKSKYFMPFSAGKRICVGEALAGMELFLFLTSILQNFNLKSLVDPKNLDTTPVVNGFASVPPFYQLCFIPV

Row | Compound | EC50 [1] | EC50 [2] | EC50 [3] | EC50 [5] | IC50 [6] | other results
1 | COc1ccc(NC2CC(=O)N(C(C)C)C2=O)cc1 (centres undefined) | > 120 µM (not active) | 18.8 µM (active) | 5.94 µM (active) |  |  | 
2 | COc1ccc(OC)c(NC(=O)c2ccc3c(=O)n(CCc4ccccc4)c(=S)[nH]c3c2)c1 |  |  |  |  |  | IC50 [4]: 13 µM (not active)
3 | CCOc1ccc(NC(=O)[C@@H](NC(=O)c2ccccc2)[C@@H](C)CC)cc1 |  |  |  | > 53 µM (inactive) | > 47.1 µM (inactive) | 
4 | Cc1cccc(C)c1OCC(O)Cn1nnc2ccccc21 (centres undefined) |  |  |  | > 53 µM (inactive) | > 47.1 µM (inactive) | 
5 | COc1ccc(Cc2nnc(NC(=O)C3CCCO3)s2)cc1OC (centres undefined) |  |  |  |  |  | IC50 [7]: > 66 µM (inactive); IC50 [8]: > 66 µM (inactive)
6 | CCOC(=O)Cc1csc(NC(=S)NC(=O)c2ccccc2Br)n1 |  |  |  |  |  | IC50 [7]: > 66 µM (inactive); IC50 [8]: > 66 µM (inactive)
7 | Cc1sc(NC(=O)CCCC(=O)O)c(C(N)=O)c1-c1ccccc1 |  |  |  |  |  | IC50 [7]: > 66 µM (inactive); IC50 [8]: > 66 µM (inactive)
8 | Cc1cccc(NC(=O)c2cc(-c3ccc(C)s3)nc3ccccc23)n1 | 9.88 µM (active) | > 60 µM (not active) | > 120 µM (not active) |  |  | 
9 | COc1ccc(CNC(=O)c2ccc(C(C)C)cc2)cc1 | 80.9 µM (active) | 0.16 µM (inconclusive) | 53.5 µM (active) |  |  | 
10 | Fc1ccccc1C1CCN(Cc2nc(CC3CC3)no2)C1 (centres undefined) | 15.4 µM (active) | 17.2 µM (active) | 15 µM (active) |  |  | 
11 | CC(C)C(NS(=O)(=O)c1ccc2c(c1)oc(=O)n2C)C(=O)N1CCN(C2CCCCC2)CC1 (centres undefined) |  |  |  | > 53 µM (inactive) | > 47.1 µM (inactive) | 
12 | Cc1cccc(NS(=O)(=O)c2cccc(C(=O)N3CCN(c4ccccn4)CC3)c2)c1 |  |  |  | > 53 µM (inactive) | > 47.1 µM (inactive) | 
13 | COC(=O)c1cn(NC(=O)c2ccc(F)cc2)c(=O)c2ccccc12 |  |  |  | > 53 µM (inactive) | > 47.1 µM (inactive) | AC50 [9]: 39.8 µM (inconclusive); AC50 [10]: 17.8 µM (inconclusive)
14 | COc1cccc(C(=O)Nc2nc(O)c3c(n2)CCCC3)c1 | > 120 µM (not active) | > 120 µM (not active) | 14.5 µM (active) |  |  | 

Source: ChEMBL document CHEMBL1201862, “PubChem BioAssay data set” (2004)
